Legend:
Format in all cases: in vivo, human
[1] = Vitamin B1 level in whole blood, serum pyridoxamine and pyridoxal levels and Wernicke's encephalopathy in two test subjects on pyridoxamine medication
ASD patient [2] = test: RSB-R (Repetitive Behavior Scale-Revised, Japanese version, 43 items, 6 subscales) in ASD patients before and after intake; settings: 800 mg/day oral + fursultiamine 25 mg/day, 8 weeks after the intake
Description: RSB-R is composed of 6 subscales (I. Stereotypical Behavior, II. Self-Harming Behavior, III. Obsessive-Compulsive Behavior, IV. Ritualized Behavior, V. Insistence on Sameness, and VI. Circumscribed Interests) and 43 items. RSB-R (Japanese version) is a Japanese version of RBS-R, which is a rating scale used worldwide, and whose validity has already been verified (Inada et al., Research in Autism Spectrum Disorders, Vol. 15-16, July 2015, pp. 60-68; Inada et al., Study on reliability and validity of the Japanese version of Repetitive Behaviors Scale—Revised (RBS-R), The Japanese Journal of Developmental Psychology, 2012, Vol. 23, No. 2, pp. 123-133). FIG. 4 illustrates 43 items of RSB-R (including 6 subscales), and the relation between the 43 items of RSB-R and diagnostic criteria A and B of DSM-5.
(§1) The symptoms of ASD of the ASD patient were assessed based on the scores of ABC-J, PARS-TR, and RSB-R (Japanese version) by a medical doctor who is a researcher of ASD.
The ASD symptoms of the ASD patient were assessed based on the scores in ABC-J and RSB-R (Japanese version) by a medical doctor who is a researcher of ASD.

ASD patient [3] = test: PARS-TR rating (items 25 to 57, each 0 none, 1 somewhat noticeable, 2 noticeable) in ASD patients before and after intake
Description: PARS (Pervasive Developmental Disorder Autism Society Japan Rating Scale) is a scale composed of 57 items to determine the characteristics in pervasive developmental disorder (PDD) (which may hereinafter also simply be referred to as “PDD”), and to evaluate the support difficulty by interviewing the mothers of the subjects (or other rearer, if it is difficult to obtain information from the mother of a subject); PARS-TR is its revised version. The revised version contains revised wording of the commentary of question items, while maintaining the reliability and validity of the rating scale of the former PARS. On a side note, question items and rating in PARS-TR, PARS-TR items rated for each age group, a score calculation method, and an ASD characteristics test method are detailed in PARS-TR PARS Text Revision (written and edited by Hattatsu Shogai Shien no tameno Hyoka Kenkyu Kai [Study of the Assessment for Supporting Developmental Disorder], a general incorporated association, Spectrum Publishing Company), the disclosure of which is incorporated herein by reference.
FIG. 3 illustrates 57 rating items prescribed in PARS-TR. The rating items vary depending on the age group of targets for diagnosis (children before school age (early childhood), elementary school students (childhood), and junior high-school students or older subjects (early adolescence or adulthood)). Items 1 to 34 are directed to those in early childhood. Items 1 to 34 are intended to assess the peak in early childhood (assessment for most noticeable symptoms in early childhood) of all subjects (children before school age, elementary school students, and junior high-school students or older subjects), and also to assess the current condition of subjects in early childhood. Peak assessment and current condition assessment are performed for young children because, for example, clear autistic symptoms before the age of 4 years may be alleviated after age 5. Young children are not assessed by items 35 to 57. Elementary school students are assessed by items 1 to 34 for early childhood to determine the peak in early childhood, and items 21 to 53 for childhood to determine the current condition. Junior high-school students or older subjects are assessed by the 34 items for early childhood to determine the peak in early childhood, and items 25 to 57 for early adolescence or adulthood to determine the current condition. The specific evaluation method is described in detail in Example 2.
Assessment by PARS-TR is performed by questioning the mother or someone else regarding the severity of symptoms concerning development and behaviors described in rating items in terms of “assessment of the peak in early childhood” and “assessment of the current condition,” and the answer was classified into the following 3 levels and assessed: “0=none (no symptoms asked were observed/no),” “1=somewhat noticeable (symptoms asked were sometimes (somewhat) observed/yes),” and “2=noticeable (symptoms asked were often (quite) observed/yes).” The PARS-TR score is a value determined by simply summing up the assessment score of each item, excluding items that cannot be assessed. Specifically, the cutoff value at which the subject is diagnosed with PDD is score 9 in early childhood, score 13 in childhood, and score 20 in early adolescence or adulthood.
[…] The total scores were compared.
as §1

[4] = case 2, 600 mg/day oral + fursultiamine 25 mg/day, 17 Days After Administration, Before Administration: 0
[5] = case 2, 600 mg/day oral + fursultiamine 25 mg/day, 17 Days After Administration, Before Administration: 1
[6] = case 2, 600 mg/day oral + fursultiamine 25 mg/day, 17 Days After Administration, Before Administration: 2
[7] = case 3, 800 mg/day oral + fursultiamine 25 mg/day, 8 weeks after the intake, before intake: rating 1

concentration at 4 weeks ([1]; human, serum, oral, subject ID No. 3, 4 weeks after start of administration): 1540 ng/mL | concentration at 12 weeks ([1]; human, serum, oral, subject ID No. 3, 12 weeks after start, with fursultiamine 75 mg/day): 23.2 ng/mL | concentration at 8 weeks ([1]; human, serum, oral, subject ID No. 6, 8 weeks after start of administration): 421 ng/mL | concentration at 11 weeks ([1]; human, serum, oral, subject ID No. 6, 11 weeks after start, with fursultiamine): 140 ng/mL
SMILES: Cc1ncc(CO)c(CN)c1O.Cl.Cl [pyridoxamine dihydrochloride]
brain MRI finding during medication ([1]; subject ID No. 3, 6 weeks after start of administration, epilepsy-like symptom): sign suggestive of Wernicke's encephalopathy | brain MRI finding during medication ([1]; subject ID No. 6, 9 weeks after start of administration): signs suggestive of Wernicke's encephalopathy | RBS-R total score for each subscale compared with before the intake (ASD patient [2]; case 3, 6 subscales, FIG. 8B): significant decrease | RBS-R total score compared with before the intake (ASD patient [2]; case 3, FIG. 8A): significant decrease | total score of all items in RBS-R compared with before the intake (ASD patient [2]; case 4, FIG. 10A): significantly decreased | RBS-R total score of subscale items (Stereotypical Behavior, Self-Harming Behavior, Obsessive-Compulsive Behavior, Insistence on Sameness) (ASD patient [2]; case 4, FIG. 10B): significantly decreased | PARS-TR item 27: Having negative lifestyle habits, and being incapable of living independently (ASD patient [3]; [4]): 0 | PARS-TR item 29: Showing extreme pickiness in food, with no extremely narrow range of food choice (ASD patient [3]; [4]): 0 | PARS-TR item 31: Being insensitive or sensitive to pain or heat (ASD patient [3]; [4]): 0 | PARS-TR item 32: Being terrified of nothing (ASD patient [3]; [4]): 0 | PARS-TR item 34: Showing self-harming behaviors, such as hitting the head on the wall or biting the hand (ASD patient [3]; [4]): 0 | PARS-TR item 39: Having difficulty understanding what is said from one situation to another (ASD patient [3]; [4]): 0 | PARS-TR item 40: Using big words, but not fully understanding the meaning thereof (ASD patient [3]; [4]): 0 | PARS-TR item 41: Difficulty understanding who is talking to who in a large group conversation (ASD patient [3]; [4]): 0 | PARS-TR item 42: Being incapable of explaining how and why (ASD patient [3]; [4]): 0 | PARS-TR item 47: Enacting a familiar scene from a TV show alone (ASD patient [3]; [4]): 0 | PARS-TR item 48: Persistently and repeatedly harassing someone on purpose (ASD patient [3]; [4]): 0 | PARS-TR item 49: Always wanting to be the best (ASD patient [3]; [4]): 0 | PARS-TR item 50: Showing tic symptoms (e.g., blinking, head movements, abuseful language) (ASD patient [3]; [4]): 0 | PARS-TR item 51: Being restless in a manner inappropriate for the context (ASD patient [3]; [4]): 0 | PARS-TR item 53: Showing behavioral arrest, and becoming incapable of moving to the next act fo frozen (ASD patient [3]; [4]): 0 | PARS-TR item 25: Persistently asking the same question (ASD patient [3]; [5]): 0 | PARS-TR item 26: Showing confusion when regular daily routine of procedures suddnly change (ASD patient [3]; [5]): 1 | PARS-TR item 33: Suddenly crying or becoming upset (ASD patient [3]; [5]): 0 | PARS-TR item 36: Showing self-centered behaviors without regard for surrounding people (ASD patient [3]; [5]): 0 | PARS-TR item 37: Showing interactive behaviors inappropriate for the context when approached by someone (ASD patient [3]; [5]): 1 | PARS-TR item 38: Interacting with others only when having a request (ASD patient [3]; [5]): 0 | PARS-TR item 43: Speaking in a unnatural and monotonous tone (ASD patient [3]; [5]): 1 | PARS-TR item 44: Having difficulty understanding another person's feeling or point of view (ASD patient [3]; [5]): 0 | PARS-TR item 45: Having difficulty understanding jokes and irony, and interpreting them literally (ASD patient [3]; [5]): 1 | PARS-TR item 52: Being very careless, unable to behave appropriately for the context (ASD patient [3]; [5]): 0 | PARS-TR item 54: Appearing unashamed (ASD patient [3]; [5]): 1 | PARS-TR item 55: Being easily deceived (ASD patient [3]; [5]): 1 | PARS-TR item 56: Being likely to feel victimized, suspicious, or aggressive (ASD patient [3]; [5]): 0 | PARS-TR item 57: Being emotionally unstable, and showing frequent emotional ups and downs (ASD patient [3]; [5]): 0 | PARS-TR item 28: Becoming mentally unstable when recalling bad events in the past (ASD patient [3]; [6]): 1 | PARS-TR item 30: Being disgusted with a particular sound (ASD patient [3]; [6]): 1 | PARS-TR item 46: Being keen on acquiring knowledge in a particular field, such as the names of places or train stations (ASD patient [3]; [6]): 1 | PARS-TR Total Score of Items 25 to 57 (ASD patient [3]; case 2, 600 mg/day oral + fursultiamine 25 mg/day, 17 Days After Administration, Before Administration: 22, cutoff 20 or more): 11 | severity of hypersensibility (ASD patient [3]; case 3, 800 mg/day oral + fursultiamine 25 mg/day, 8 weeks): lowered the severity of hypersensibility | PARS-TR item 31 rating (insensitive to pain) (ASD patient [3]; [7]): 1 | PARS-TR item 32 rating (frightened by wipers, ceiling fan) (ASD patient [3]; [7]): 0 | PARS-TR item 30 rating (hyperacusis) (ASD patient [3]; case 3, 800 mg/day oral + fursultiamine 25 mg/day, 8 weeks after the intake, before intake: rating 2): 1 | PARS-TR current score in early adolescence or adulthood (ASD patient [3]; case 3, 800 mg/day oral + fursultiamine 25 mg/day, 18 weeks after the intake, before intake: 21, cutoff score 20): 14

Source: patent US11253519B2, “Composition used to improve symptoms of autism spectrum disorder, and method using same for improving symptoms of autism spectrum disorder” (RENASCIENCE CO., LTD., priority 2016, dated 2022)
